This is an account of results in patent US9718781B2, “Methods and compounds for treating proliferative disorders and viral infections” (University College Dublin, National University of Ireland, …, priority 2012, dated 2017).

For orientation: IC50 means the midpoint of a concentration-inhibition curve.

SMILES strings stand for the structures. Like-named read-outs stand apart in the source and are kept apart here.

The subject of assay [1] is platelets in whole blood. Briefly: U46619-mediated platelet aggregation in whole blood (Sysmex haematological analyzer). It is filed as cell-based, human. The conditions noted are these: antagonist 0.1 μM, 1 μM U46619. Here is the method: From an efficacy point of view, this is an important assay and, physiologically, relevant with respect to the therapeutic target.
Initially, the Sysmex haematological analyzer was used to examine the effect of the TP antagonists at a single concentration (0.1 μM) on U46619 (1 μM)-mediated platelet aggregation in whole blood.
FIG. 3 illustrates effects of the TP antagonist compounds on U46619-mediated platelet aggregation. Blood was taken form healthy volunteer by venupuncture into syringes containing 3.8% sodium citrate, 10 μM Indomethacin, such that the ratio of anticoagulant:blood was 1:9. The blood was aliquoted and incubated for 10 min with TP20 and selected NTP compounds, as indicated, where the antagonist were used at 0.1 μM prior to stimulation with 1 μM U46619 for 3 min. The blood was fixed with formaldehyde and platelet numbers counted using the Sysmex haematological analyzer. Data is presented as the mean percentage of control or non-treated blood sample (Percentage of Control; %) and represent data from 3 independent experiments were samples were treated in duplicate.

For assay [2], the target named is T1, TPα (Homo sapiens, UniProt P21731).
T1 construct: expressed in transfected cells
T1 sequence (P21731 1-343): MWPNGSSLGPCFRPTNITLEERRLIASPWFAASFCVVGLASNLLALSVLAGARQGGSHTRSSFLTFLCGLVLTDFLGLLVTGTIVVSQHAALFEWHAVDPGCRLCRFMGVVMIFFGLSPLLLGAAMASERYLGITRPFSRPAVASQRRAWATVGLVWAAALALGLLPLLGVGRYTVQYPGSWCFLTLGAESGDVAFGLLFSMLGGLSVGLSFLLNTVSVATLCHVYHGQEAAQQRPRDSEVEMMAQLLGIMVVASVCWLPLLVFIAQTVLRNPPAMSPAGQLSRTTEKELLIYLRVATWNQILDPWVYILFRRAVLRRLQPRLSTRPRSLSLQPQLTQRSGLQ
Kind of assay: U46619-induced [Ca2+]i mobilization in HEK.TPα cells. It is filed as cell-based. The conditions noted are these: for remaining activity at 1 µM: antagonist 1 μM, read-out: Percentage of Control, TPα, 1 μM; for remaining activity at 1 µM / remaining activity at 10 µM: % of agonist-induced response in vehicle-treated cells; for remaining activity at 10 µM: antagonist 10 μM, read-out: Percentage of Control, TPα, 10 μM. A digest of the protocol:
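HEK293 cells loaded with 3 μM Fluo-4 (1 h, 25° C.) in Krebs-HEPES pH 7.4, then pre-incubated with compound for 10 min. Fluorescence at 520 nm tracked after injection of 1 μM U46619. Signal calibrated by Fmax (2% Triton X100) and Fmin (1 mM EGTA).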

Assay [3] deals with T2, TPβ (Homo sapiens, UniProt P21731).
T2 construct: expressed in transfected cells
Briefly: U46619-induced [Ca2+]i mobilization in HEK.TPβ cells. It is filed as cell-based. The note with it: for remaining activity at 1 µM / remaining activity at 10 µM: % of agonist-induced response in vehicle-treated cells; for remaining activity at 1 µM: read-out: Percentage of Control, TPβ, 1 μM; for remaining activity at 10 µM: antagonist 10 μM, read-out: Percentage of Control, TPβ, 10 μM. In outline: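 Fluo-4-loaded (3 μM, 1 h, 25° C.) HEK293 TPβ cells in KREBs-HEPES pH 7.4, pre-incubated 10 min with test compound, then stimulated with 1 μM U46619. Fluorescence at 520 nm followed for 75 s, calibrated by Fmax (2% Triton X100) and Fmin (1 mM EGTA).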

[4] abbreviates: side-by-side comparison, n=5, Table 2.6, read-out: IC50 values for inhibition of U46619-mediated [Ca2+]i, TPα.
The mark [5] stands for this setting: side-by-side comparison, n=6, Table 2.6, read-out: IC50 values for inhibition of U46619-mediated [Ca2+]i, TPβ.

T2 sequence (P21731 1-407 isoform P21731-2): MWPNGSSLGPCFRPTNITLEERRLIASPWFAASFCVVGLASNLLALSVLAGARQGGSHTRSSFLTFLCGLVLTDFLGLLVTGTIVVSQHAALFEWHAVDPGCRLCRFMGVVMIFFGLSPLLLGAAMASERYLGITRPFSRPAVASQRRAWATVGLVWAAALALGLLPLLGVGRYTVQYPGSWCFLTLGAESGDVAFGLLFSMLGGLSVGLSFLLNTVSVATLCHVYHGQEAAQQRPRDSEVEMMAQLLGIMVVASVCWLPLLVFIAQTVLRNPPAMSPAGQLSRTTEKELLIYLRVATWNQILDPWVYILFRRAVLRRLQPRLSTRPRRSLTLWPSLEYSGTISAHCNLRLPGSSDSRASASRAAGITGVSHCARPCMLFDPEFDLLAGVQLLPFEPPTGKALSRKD

As to `COc1ccc(-c2cccc(Oc3ccc(C#N)cc3S(=O)(=O)NC(=O)NC(C)(C)C)c2)cc1` [NTP4, N-(tert-butylcarbamoyl)-5-cyano-2-((4′-methoxy-[1,1′-biphenyl]-3-yl)oxy)benzenesulfonamide], the “inhibition of U46619-mediated reduction in platelet number” value in assay [1] is recorded as “approx. 50%”. Further, the remaining activity at 1 µM in assay [2] (1 μM U46619) turned out to be 46.1 ± 3.87%; in assay [3] (antagonist 1 μM, 1 μM U46619), 22.5 ± 3.7%. Besides, the remaining activity at 10 µM in assay [2] (1 μM U46619) was 19.9 ± 2.13%; in assay [3] (1 μM U46619) it was 10.2 ± 0.95%. Also, the results for the IC50 in assay [2] (setting [4]) and in assay [3] (setting [5]) were 0.593 ± 0.0836 µM and 0.0604 ± 0.008 µM, respectively. In addition, the “activity class in HEK.TPβ cells” value in assay [3] (antagonist 1 μM, 1 μM U46619) is “ACTIVE”. In addition, the “inhibition of U46619-mediated responses” value in assay [3] (used at 0.5, HEK.TPβ cells) is on record as “greater than 50%”.
Take `COc1ccc(-c2cccc(Oc3ccc([N+](=O)[O-])cc3S(=O)(=O)NC(=O)NC(C)(C)C)c2)cc1` [TP20, N-(tert-butylcarbamoyl)-2-((4′-methoxy-[1,1′-biphenyl]-3-yl)oxy)-5-nitrobenzene-sulfonamide]: in assay [1], the “inhibition of U46619-mediated reduction in platelet number” value is given as “almost completely inhibited”. The IC50 in assay [2] (HEK.TPα cells, 1 μM U46619, Table 2, read-out: IC50 data for U46619-mediated [Ca2+]i mobilization, TPα) was 0.119 µM; in assay [2] (setting [4]), 0.24 ± 0.0298 µM; in assay [3] (HEK.TPβ cells, 1 μM U46619, Table 2, read-out: IC50 data for U46619-mediated [Ca2+]i mobilization, TPβ) it was 0.00733 µM; in assay [3] (setting [5]), 0.00961 ± 0.00146 µM. Further, the “TPα:TPβ Selectivity Ratio” value in assay [2] (IC50 TPα/IC50 TPβ) came out at 16.2. The remaining activity at 1 µM in assay [2] (1 μM U46619) worked out at 45.4 ± 4.07%; in assay [3] (antagonist 1 μM, 1 μM U46619) it was 12.6 ± 1.46%. For the same molecule, the remaining activity at 10 µM stood at 17.1 ± 2.46% in assay [2] (1 μM U46619) and 9.96 ± 1.7% in assay [3] (1 μM U46619). Further, the “reduction of U46619-mediated calcium mobilization responses” value in assay [3] (1 & 10 μM, HEK.TPβ cells) was “approx. 90%”.
